Reference: patent US20050153937A1, “Desensitization of compliment activation using monocyte/macrophage inhibitory compounds” (priority 2003, published 2005)

System: complement activation-related acute hypersensitivity (CARPA)
Conditions: pig, in vivo
Description: Adolescent (2040 kg) Yorkshire pigs of both genders are sedated with i.m. ketamine (Ketalar) and then anesthetized with halothane or isoflurane via nose cone. The trachea is intubated to allow mechanical ventilation with an anesthesia machine, using 1-2.5% halothane or isoflurane. A pulmonary artery catheter equipped with thermodilution-based continuous cardiac output detector is advanced via the right internal jugular vein through the right atrium into the pulmonary artery to measure pulmonary arterial pressure (PAP) and cardiac output (CO). Another catheter is inserted into the right femoral artery and advanced into the proximal aorta for blood sampling and to measure systemic arterial pressure (SAP). Blood pressure values and 2-3 leads of the electrocardiogram (ECG) are obtained continually.
The CARPA-activating compounds used in the following experiments are i) Doxil containing 2 mg/ml doxorubicin HCl and 16 mg/ml lipid (phospholipid concentration: 13.3 mM, 150 μg doxorubicin/μmol phospholipid), ii) multilamellar vesicles (MLV) consisting of dimyristoyl phosphatidylcholine (DMPC), dimyristoyl phosphatidylglycerol (DMPG), and cholesterol at a 45:5:50 ratio, and iii) zymosan. […]

## Zymosan
  reactions to second series of CARPA-activator injections compared with first administration: substantially identical
iv
  time until all physiologic and blood measures return to baseline after injection: ≤ 30 min
